The values below come from article PMC12102759 (Protein Science : A Publication of the Protein Society, 2025).

For the assay, the system named is G3BP1 NFT2. Format: binding, human. Conditions: library DMS-BM; bait G3BP1 NFT2; prey CAPRIN1; AQMQGPYNFIQDSM(averaged): mean of the two overlapping peptides over the shared positions.
As to “AQMQGPYNFIQDSM(averaged) F9L (AQMQGPYNLIQDSM)”, the “DMS position-specific score (PSSM value) per amino-acid substitution, averaged” value worked out at 0.0005113.

On to “AQMQGPYNFIQDSM(averaged) A1Q (QQMQGPYNFIQDSM)”, for which the “DMS position-specific score (PSSM value) per amino-acid substitution, averaged” value stood at 0.1157.

Take “AQMQGPYNFIQDSM(averaged) Y7V (AQMQGPVNFIQDSM)”: the “DMS position-specific score (PSSM value) per amino-acid substitution, averaged” value came to 0.02381.

For the substance “AQMQGPYNFIQDSM(averaged) M14T (AQMQGPYNFIQDST)”, the “DMS position-specific score (PSSM value) per amino-acid substitution, averaged” value is on record as 0.005834.

As for “AQMQGPYNFIQDSM(averaged) G5V (AQMQVPYNFIQDSM)”, the “DMS position-specific score (PSSM value) per amino-acid substitution, averaged” value came out at 0.008337.

Consider “AQMQGPYNFIQDSM(averaged) I10K (AQMQGPYNFKQDSM)”, for which the “DMS position-specific score (PSSM value) per amino-acid substitution, averaged” value worked out at 0.0003536.

For “AQMQGPYNFIQDSM(averaged) P6R (AQMQGRYNFIQDSM)”, the “DMS position-specific score (PSSM value) per amino-acid substitution, averaged” value turned out to be 0.01834.

“AQMQGPYNFIQDSM(averaged) M3G (AQGQGPYNFIQDSM)”: the “DMS position-specific score (PSSM value) per amino-acid substitution, averaged” value stood at 0.02919.

“AQMQGPYNFIQDSM(averaged) I10M (AQMQGPYNFMQDSM)”: the “DMS position-specific score (PSSM value) per amino-acid substitution, averaged” value is 0.03721.

Turning to “AQMQGPYNFIQDSM(averaged) M14E (AQMQGPYNFIQDSE)”, the “DMS position-specific score (PSSM value) per amino-acid substitution, averaged” value is 0.2115.

For “AQMQGPYNFIQDSM(averaged) G5M (AQMQMPYNFIQDSM)”, the “DMS position-specific score (PSSM value) per amino-acid substitution, averaged” value amounted to 0.1116.

For “AQMQGPYNFIQDSM(averaged) M3S (AQSQGPYNFIQDSM)”, the “DMS position-specific score (PSSM value) per amino-acid substitution, averaged” value is recorded as 0.002665.

In the case of “AQMQGPYNFIQDSM(averaged) P6F (AQMQGFYNFIQDSM)”, the “DMS position-specific score (PSSM value) per amino-acid substitution, averaged” value worked out at 0.002152.

Turning to “AQMQGPYNFIQDSM(averaged) Q2P (APMQGPYNFIQDSM)”, the “DMS position-specific score (PSSM value) per amino-acid substitution, averaged” value was 0.007875.

Take “AQMQGPYNFIQDSM(averaged) D12K (AQMQGPYNFIQKSM)”: the “DMS position-specific score (PSSM value) per amino-acid substitution, averaged” value came to 0.003093.

With “AQMQGPYNFIQDSM(averaged) Q11L (AQMQGPYNFILDSM)”, the “DMS position-specific score (PSSM value) per amino-acid substitution, averaged” value amounted to 0.00722.

“AQMQGPYNFIQDSM(averaged) Y7M (AQMQGPMNFIQDSM)”: the “DMS position-specific score (PSSM value) per amino-acid substitution, averaged” value came to 0.001832.

Turning to “AQMQGPYNFIQDSM(averaged) A1H (HQMQGPYNFIQDSM)”, the “DMS position-specific score (PSSM value) per amino-acid substitution, averaged” value is 0.006137.

Take “AQMQGPYNFIQDSM(averaged) M3P (AQPQGPYNFIQDSM)”: the “DMS position-specific score (PSSM value) per amino-acid substitution, averaged” value is 0.0009459.

On to “AQMQGPYNFIQDSM(averaged) F9N (AQMQGPYNNIQDSM)”, for which the “DMS position-specific score (PSSM value) per amino-acid substitution, averaged” value turned out to be 0.

“AQMQGPYNFIQDSM(averaged) M14G (AQMQGPYNFIQDSG)”: the “DMS position-specific score (PSSM value) per amino-acid substitution, averaged” value amounted to 0.000626.

For “AQMQGPYNFIQDSM(averaged) A1P (PQMQGPYNFIQDSM)”, the “DMS position-specific score (PSSM value) per amino-acid substitution, averaged” value amounted to 0.07411.

Regarding “AQMQGPYNFIQDSM(averaged) N8L (AQMQGPYLFIQDSM)”, the “DMS position-specific score (PSSM value) per amino-acid substitution, averaged” value was 0.06185.

As to “AQMQGPYNFIQDSM(averaged) Y7N (AQMQGPNNFIQDSM)”, the “DMS position-specific score (PSSM value) per amino-acid substitution, averaged” value is listed as 0.

For the substance “AQMQGPYNFIQDSM(averaged) Q11N (AQMQGPYNFINDSM)”, the “DMS position-specific score (PSSM value) per amino-acid substitution, averaged” value is 0.05691.

Regarding “AQMQGPYNFIQDSM(averaged) Y7L (AQMQGPLNFIQDSM)”, the “DMS position-specific score (PSSM value) per amino-acid substitution, averaged” value was 0.1143.

As for “AQMQGPYNFIQDSM(averaged) N8T (AQMQGPYTFIQDSM)”, the “DMS position-specific score (PSSM value) per amino-acid substitution, averaged” value stood at 0.1728.

Consider “AQMQGPYNFIQDSM(averaged) M14S (AQMQGPYNFIQDSS)”, for which the “DMS position-specific score (PSSM value) per amino-acid substitution, averaged” value was found to be 0.001956.

With “AQMQGPYNFIQDSM(averaged) Q2G (AGMQGPYNFIQDSM)”, the “DMS position-specific score (PSSM value) per amino-acid substitution, averaged” value is listed as 0.001251.
